In US11053230B2, “3-hydroxy-imidazolidin-4-one compounds as inhibitors of indoleamine 2,3-dioxygenase” (Netherlands Translational Research Center B.V., priority 2017, dated 2021):
“And” between values parts separate entries of the source, which are not always exact repeats. Identical values can stand only once.

Biological target: T1, IDO1 (Homo sapiens, UniProt P14902)
T1 construct: Recombinant full-length IDO1 (Seegers, N., et al.) and all other assay components were diluted in IDO1 reaction buffer; made in house
Experiment: Biochemical IDO1 assay (NFK GreenScreen)
Conditions: for IC50: NFK GreenScreen, 25 nM IDO1, 100 μM L-tryptophan, read-out: IC50, inhibitory potency on IDO1; for relative activity of the separated isomers: stated in the synthesis examples, assay not named
Description: Inhibition of IDO1 activity can be measured by determining the enzymatic conversion of L-tryptophan into N-formylkynurenine (NFK) in a reaction mixture containing IDO1 and test compound. The formation of NFK can be detected directly by, for instance, high-performance liquid chromatography (HPLC) methods, or by intrinsic fluorescence.
Compounds were serially diluted in dimethylsulfoxide (DMSO) and finally in IDO1 reaction buffer, consisting of 50 mM NaH2PO4, pH7.0, supplemented with 0.05% Tween-20 (cat. No. P7949; Sigma Aldrich) and 1% glycerol. Recombinant full-length IDO1 (Seegers, N., et al.) and all other assay components were diluted in IDO1 reaction buffer. […] Subsequently, 10 μl of 0.4 mM of the substrate L-tryptophan was added, i.e., the final concentration of L-tryptophan was 100 μM. The DMSO concentration in the assay was 0.3%. […] Incubation was continued for 60 min at room temperature. Then, 10 μl of NFK Green™ (NTRC, Oss, The Netherlands) was added, the plate was sealed, and the reaction was developed for 3 hours at 37° C. To determine the production of N-formyl kynurenine (NFK), the seal was removed and fluorescence was read on an EnVision multimode reader (Perkin Elmer, Waltham, Mass., USA). IC50 were calculated using XLfit™ software (ID Business Solutions, Ltd., Surrey, U.K.).

T1 sequence (P14902 whole entry): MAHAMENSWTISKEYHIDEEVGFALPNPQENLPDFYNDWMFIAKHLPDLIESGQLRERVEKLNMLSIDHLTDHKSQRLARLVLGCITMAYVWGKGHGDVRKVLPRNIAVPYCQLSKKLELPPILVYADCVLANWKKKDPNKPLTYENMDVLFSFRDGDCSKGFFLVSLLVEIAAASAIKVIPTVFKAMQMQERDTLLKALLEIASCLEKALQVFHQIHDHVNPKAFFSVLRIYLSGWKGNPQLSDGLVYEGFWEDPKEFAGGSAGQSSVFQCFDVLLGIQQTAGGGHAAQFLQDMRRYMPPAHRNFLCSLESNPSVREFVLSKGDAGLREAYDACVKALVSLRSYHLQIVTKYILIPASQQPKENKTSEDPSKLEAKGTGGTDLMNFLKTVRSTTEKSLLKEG

SMILES | IC50 | relative activity of the separated isomers
CC(C)CCc1cc(F)c(C(=O)N2CC(=O)N(O)C2c2cc(Br)cs2)c(F)c1 (stereo not shown) [Example 95, 2-(4-Bromo-2-thienyl)-1-(2,6-difluoro-4-isopentyl-benzoyl)-3-hydroxy-imidazolidin-4-one] | ≤ 5000 nM and 1000 to 5000 nM | –
C[C@@H](c1ccccc1)N1CC(=O)N(O)C1c1cc(I)cs1 (single isomer, unassigned) [Example 119a] | – | less active isomer
C[C@@H](c1ccccc1)N1CC(=O)N(O)C1c1csc(Br)c1 (single isomer, unassigned) [Example 121b] | ≤ 1000 nM | most active isomer
[2H]c1sc(C2N(O)C(=O)CN2C(=O)c2c(F)cccc2F)cc1Br (stereo not shown) [Example 111, 2-(4-Bromo-5-deuterio-2-thienyl)-1-(2,6-difluorobenzoyl)-3-hydroxy-imidazolidin-4-one] | ≤ 1000 nM | –
N#Cc1csc(C2N(O)C(=O)CN2C(=O)c2ccccc2F)c1 (stereo not shown) [Example 31, 5-[1-(2-Fluorobenzoyl)-3-hydroxy-4-oxo-imidazolidin-2-yl]thiophene-3-carbonitrile] | ≤ 5000 nM and 1000 to 5000 nM | –
O=C1CN(C(=O)c2c(F)cccc2C(F)(F)F)C(c2cc(Br)cs2)N1O (stereo not shown) [Example 11, 2-(4-Bromo-2-thienyl)-1-[2-fluoro-6-(trifluoromethyl)benzoyl]-3-hydroxy-imidazolidin-4-one] | ≤ 5000 nM and 1000 to 5000 nM | –
N#Cc1csc(C2N(O)C(=O)CN2C(=O)c2c(F)cccc2Cl)c1 (stereo not shown) [Example 29, 5-[1-(2-Chloro-6-fluoro-benzoyl)-3-hydroxy-4-oxo-imidazolidin-2-yl]thiophene-3-carbonitrile] | ≤ 5000 nM and 1000 to 5000 nM | –
O=C1CN(C(=O)c2ccc(Cc3ccccc3)cc2)C(c2cc(Br)cs2)N1O (stereo not shown) [Example 53, 1-(4-Benzylbenzoyl)-2-(4-bromo-2-thienyl)-3-hydroxy-imidazolidin-4-one] | ≤ 5000 nM and 1000 to 5000 nM | –
O=C1CN(C(=O)c2ccccc2Cl)C(c2cc(Br)cs2)N1O (stereo not shown) [Example 55, 2-(4-Bromo-2-thienyl)-1-(2-chlorobenzoyl)-3-hydroxy-imidazolidin-4-one] | ≤ 1000 nM | –
O=C1CN(C(=O)c2c(F)cccc2F)C(c2cc(C3CC3)cs2)N1O (stereo not shown) [Example 109, 2-(4-Cyclopropyl-2-thienyl)-1-(2,6-difluorobenzoyl)-3-hydroxy-imidazolidin-4-one] | ≤ 5000 nM and 1000 to 5000 nM | –
O=C1CN(C(=O)c2c(F)cc(C3CC3)cc2F)C(c2cc(Br)cs2)N1O (stereo not shown) [Example 82, 2-(4-Bromo-2-thienyl)-1-(4-cyclopropyl-2,6-difluoro-benzoyl)-3-hydroxy-imidazolidin-4-one] | ≤ 1000 nM | –
Cn1cc(-c2cc(F)c(C(=O)N3CC(=O)N(O)C3c3cc(Br)cs3)c(F)c2)cn1 (stereo not shown) [Example 86, 2-(4-Bromo-2-thienyl)-1-[2,6-difluoro-4-(1-methylpyrazol-4-yl)benzoyl]-3-hydroxy-imidazolidin-4-one] | ≤ 1000 nM | –
CC(C)(N)C#Cc1cc(F)c(C(=O)N2CC(=O)N(O)C2c2cc(Br)cs2)c(F)c1 (stereo not shown) [Example 81, 1-[4-(3-Amino-3-methyl-but-1-ynyl)-2,6-difluoro-benzoyl]-2-(4-bromo-2-thienyl)-3-hydroxy-imidazolidin-4-one] | ≤ 1000 nM | –
O=C1CN(C(=O)c2c(F)cccc2F)C(c2cc(Br)cs2)N1O (single isomer, unassigned) [Example 48b, 2-(4-Bromo-2-thienyl)-1-(2,6-difluorobenzoyl)-3-hydroxy-imidazolidin-4-one] | ≤ 1000 nM | most active isomer
O=C1CN(C(=O)c2c(F)cccc2F)C(c2ccc(Br)s2)N1O (single isomer, unassigned) [Example 49a, 2-(5-Bromo-2-thienyl)-1-(2,6-difluorobenzoyl)-3-hydroxy-imidazolidin-4-one] | ≤ 5000 nM and 1000 to 5000 nM | less active isomer
O=C1CN(C(=O)c2c(F)cccc2F)C(c2cc(Br)cs2)N1O (stereo not shown) [Example 8, 2-(4-Bromo-2-thienyl)-1-(2,6-difluorobenzoyl)-3-hydroxy-imidazolidin-4-one] | ≤ 1000 nM | –
